Source: article PMC2801615, “Sex Pheromone Receptor Specificity in the European Corn Borer Moth, Ostrinia nubilalis” (PLoS ONE, 2010)

Target: T1, OnOr6/2 (Ostrinia nubilalis, UniProt D3J5H9)
T1 construct: gene OR6; full-length ORF (421-425 residues for the set) in pGEMHE; cRNA co-injected with OnOr2 in Xenopus oocytes; dimer with Or83b ortholog; with Odorant receptor coreceptor
T1 sequence (D3J5H9 1-421): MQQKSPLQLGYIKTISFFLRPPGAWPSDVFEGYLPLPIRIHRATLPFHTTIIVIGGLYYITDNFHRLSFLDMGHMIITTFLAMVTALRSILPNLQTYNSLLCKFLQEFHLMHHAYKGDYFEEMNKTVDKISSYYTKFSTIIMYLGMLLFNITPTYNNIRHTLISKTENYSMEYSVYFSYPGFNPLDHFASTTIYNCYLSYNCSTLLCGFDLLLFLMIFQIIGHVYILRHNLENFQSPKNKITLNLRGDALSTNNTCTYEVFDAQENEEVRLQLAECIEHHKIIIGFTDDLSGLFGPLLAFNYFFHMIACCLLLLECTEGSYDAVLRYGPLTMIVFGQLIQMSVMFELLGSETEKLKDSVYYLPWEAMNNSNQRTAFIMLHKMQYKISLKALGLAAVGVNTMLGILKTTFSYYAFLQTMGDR
T1 sequence (D3J5H5 1-473 partner): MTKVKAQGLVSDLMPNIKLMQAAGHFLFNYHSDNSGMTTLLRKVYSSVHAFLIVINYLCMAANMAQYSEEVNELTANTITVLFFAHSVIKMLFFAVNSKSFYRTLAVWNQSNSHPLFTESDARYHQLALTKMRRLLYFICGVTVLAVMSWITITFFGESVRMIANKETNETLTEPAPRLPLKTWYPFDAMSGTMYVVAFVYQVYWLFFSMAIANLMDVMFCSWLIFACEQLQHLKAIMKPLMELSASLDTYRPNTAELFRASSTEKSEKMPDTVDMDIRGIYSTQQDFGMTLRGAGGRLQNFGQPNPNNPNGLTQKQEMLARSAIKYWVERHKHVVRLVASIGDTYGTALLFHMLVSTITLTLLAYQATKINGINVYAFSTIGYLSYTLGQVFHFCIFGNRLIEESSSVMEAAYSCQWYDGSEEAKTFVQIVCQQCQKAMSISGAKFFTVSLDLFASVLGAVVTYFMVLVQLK
Assay: two-electrode voltage clamp, Xenopus oocytes
Type: cell-based
Conditions: read-out: EC50 (μM ± SEM)
Description: two-electrode voltage clamp, Xenopus oocytes on OnOr6/2

Row | EC50 | SMILES
1 | 0.86 ± 0.27 µM | CC/C=C\CCCCCCCCCCOC(C)=O [Z11, Z11–14:OAc]

Target: T2, OnOr1/2 (Ostrinia nubilalis, UniProt D3J5H4)
T2 construct: gene OR1; full-length ORF (421-425 residues for the set) in pGEMHE; cRNA co-injected with OnOr2 in Xenopus oocytes; dimer with Or83b ortholog; with Odorant receptor coreceptor
T2 sequence (D3J5H4 1-424): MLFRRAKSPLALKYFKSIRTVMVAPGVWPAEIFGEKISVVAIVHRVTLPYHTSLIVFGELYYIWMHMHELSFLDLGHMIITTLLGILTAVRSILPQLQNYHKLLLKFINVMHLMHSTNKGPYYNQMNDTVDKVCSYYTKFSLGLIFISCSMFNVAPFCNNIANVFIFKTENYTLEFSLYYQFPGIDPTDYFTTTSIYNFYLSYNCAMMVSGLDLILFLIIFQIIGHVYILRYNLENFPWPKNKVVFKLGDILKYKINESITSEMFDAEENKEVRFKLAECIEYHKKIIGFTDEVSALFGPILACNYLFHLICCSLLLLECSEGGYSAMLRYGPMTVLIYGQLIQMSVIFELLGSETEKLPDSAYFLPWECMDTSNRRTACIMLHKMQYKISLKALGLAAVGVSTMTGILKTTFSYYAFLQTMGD
T2 sequence (D3J5H5 1-473 partner): T1 sequence (D3J5H5 1-473 partner)
Assay: two-electrode voltage clamp, Xenopus oocytes
Type: cell-based
Conditions: read-out: EC50 (μM ± SEM)
Description: two-electrode voltage clamp, Xenopus oocytes on OnOr1/2

Row | EC50 | SMILES
2 | 1.54 ± 0.33 µM | CCCC/C=C\CCCCCCCCOC(C)=O [Z9, Z9–14:OAc]
3 | 0.34 ± 0.05 µM | CC/C=C\CCCCCCCCCCOC(C)=O [Z11, Z11–14:OAc]
4 | 2.73 ± 0.24 µM | C/C=C\CCCCCCCCCCCOC(C)=O [Z12, Z12–14:OAc]

Continued, compound first:

Row | SMILES | EC50
5 | CC/C=C/CCCCCCCCCCOC(C)=O [E11, E11–14:OAc] | 1.92 ± 0.2 µM
6 | C/C=C/CCCCCCCCCCCOC(C)=O [E12, E12–14:OAc] | 0.26 ± 0.05 µM
